Data on four compounds can be found in patent US10675275B2, “Prophylactic and/or therapeutic agent for fibromyalgia” (ONO PHARMACEUTICAL CO., LTD., priority 2015, dated 2020).

Counter-ions that a name gives are not always drawn.

The subject of this assay is rat somatic hyperalgesia model. The assay is described as follows: Efficacy in a rat somatic hyperalgesia model (acid saline, Randall-Selitto pain threshold). Format: in vivo. Particulars: SD male rats, right hind paw (non-challenged side), oral. The procedure:
SD male rats (Charles River Laboratories Japan, Inc., 5 weeks old upon usage) were used. Under isoflurane anaesthesia, rats were intramuscularly administered with 100 μL of acidic saline of pH 4.0 in the left gastrocnemius. After 5 days of administration, rats again received 100 μL of acid saline in the left gastrocnemius. In the normal group, rats were intramuscularly administered with 100 μL of saline twice in total with 5 days apart in the left gastrocnemius (see Muscle Nerve, vol. 24, pp. 37-46, 2001).
The pain threshold was measured on a Randall-Selitto pressure analgesy-meter (Ugo Basile). Briefly, rats were securely fixed and uniformly and continuously increasing pressure was applied to the hind paws. […] For each of the left and right hind paws, tests were carried out three times at each evaluation point and the values were averaged to obtain the pain threshold.
For the normal group, rats were arbitrarily selected from those showing the pain threshold on the day before the first administration of acid saline of 140 g or more for both left and right hind paws. After being divided into groups, administration of the test compound (the present compound (the compound described in Example 38 of PTL 1), comparative compound A (the compound described in Example 38(5) of PTL 1), comparative compound B (the compound described in Example 41(2) of PTL 1), comparative compound C (1-(2-chlorophenyl)-N-methyl-N-(1-methylpropyl)isoquinoline-3-carboxamide (PK11195), CAS registry No.: 85532-75-8), a control substance (duloxetine hydrochloride, pregabalin) or a vehicle (0.5 w/v % methylcellulose 400 cP solution)) was started on the same day. On day 1 and day 7 of administration of each drug solution, the pain threshold on left and right hind paws was measured in a blind manner 2 hours after the first administration. Duloxetine hydrochloride was orally administered once a day and other agents were orally administered twice a day.

On to `CCC(C)N(C)C(=O)c1cc2ccccc2c(-c2ccccc2Cl)n1` (centres unmarked) [comparative compound C, 1-(2-chlorophenyl)-N-methyl-N-(1-methylpropyl)isoquinoline-3-carboxamide], for which the “pain threshold (efficacy for the pain threshold decreased in the control group)” value (day 7, before and 2 hours after administration, 1 mg/kg, twice a day) is “did not show the efficacy”.
On to `CNCC[C@H](Oc1cccc2ccccc12)c1cccs1` [duloxetine hydrochloride], for which, for the setting “day 7, before and 2 hours after administration, 30 mg/kg, once a day”, the “pain threshold (suppression of the decrease caused by acid saline)” value is “suppressed this decrease of the pain threshold”.
For the compound `CC(C)C[C@H](CN)CC(=O)O` [pregabalin], the “pain threshold (suppression of the decrease caused by acid saline)” value (day 7, before and 2 hours after administration, 20 mg/kg, twice a day) is on record as “suppressed this decrease of the pain threshold”.
As to `COc1cc(Cl)ccc1[C@H]1c2[nH]c3cccc(F)c3c2C2(CC2)CN1C(C)=O` [the present compound, (1S)-2-acetyl-1-(4-chloro-2-methoxyphenyl)-5-fluoro-1,2,3,9-tetrahydrospiro[β-carboline-4,1′-cyclopropane]], the “pain threshold (suppression of the decrease caused by acid saline)” value (day 7 of administration, before and 2 hours after administration, 0.1, 1 or 10 mg/kg, twice a day) is “significant suppression”; the “pain threshold (suppression of the decrease caused by acid saline)” value (day 7 of administration, before and 2 hours after administration, 0.1, 1 or 10 mg/kg, twice a day, listed as The present compound) is “suppressed this decrease of the pain threshold”.
